Here are results for 2 molecules from patent US12377069B2, “Compounds, compositions, methods of using, and methods for preparing compounds” (UNIVERSITY OF LOUISVILLE RESEARCH FOUNDATION, INC., priority 2018, dated 2025).

One assay concerns AhR^−/− mice. Put plainly: TNBS-induced colitis in AhR^−/− mice. The assay is classed as in vivo, mouse. The conditions noted are these: 20 mg/kg every 12 h; for serum IL-6 in AhR^−/− mice / serum TNF-α in AhR^−/− mice / shortening of colon lengths in AhR^−/− mice: 60 h post TNBS. As to the method:
FIG. 8: UroA/UAS03 exert beneficial activities through AhR-dependent pathways. (A-F) Colitis was induced using TNBS in C57BL/6 (WT) and AhR^−/− mice (n=4/group 7-8 week old age). Mice were treated with Veh or UroA/UAS03 (20 mg/kg bodyweight) every 12 h post TNBS administration and mice were euthanized at post 60 h TNBS administration. (A) TNBS-induced colitis experimental design and treatment regimen. (B) Percent body weight loss (No TNBS-Solid black line; Veh+TNBS− Solid red line; UroA+TNBS− Solid blue line; UAS03+TNBS− Solid purple line), (C) representative colon images, (D) colon lengths, (E) gut permeability, (F) serum levels of IL-6 and TNF-α were determined. Statistical analysis was performed (unpaired t-test) using Graphpad Prism software. Error bars, ±SEM ***p<0.001; **p<0.01 *p<0.05. (G) AhR-Nrf2 dependent tight junction protein regulation by UroA/UAS03. UroA/UAS03 (L:ligands) bind to AhR and activate its nuclear translocation to induce expression of Cyp1A1 and Nrf2. […] (H) LPS (50 ng/ml)-induced IL-6 levels were measured in the presence of Vehicle or UroA or UAS03 (0.1, 1, 10, 20, 30 and 50 μM) in bone marrow derived macrophages (BMDM) from wild type (WT), Nrf2^−/− and AhR^−/− mice. The data is representative of two independent experiments with triplicates. Statistical analysis was performed (unpaired t-test) using Graphpad Prism software. Error bars, ±SEM ***p<0.001; **p<0.01 *p<0.05.
2,4,6-Trinitrobenzenesulfonic acid (TNBS)-induced colitis: Male C57BL/6 or Nrf2^−/− mice (6-8 week old age mice) were anesthetized with ketamine/xylazine (100 mg/12.5 mg/kg IP) mixture and administered with single dose of TNBS (2.5 mg/mice; Sigma Aldrich, USA) in 50% ethanol. After administration of TNBS, mice were held upside down for 30-60 sec to ensure proper distribution of TNBS in the colon. Control group received 50% ethanol without TNBS. Mice with TNBS were randomly divided into three groups, viz. vehicle (0.25% sodium carboxymethylcellulose (CMC)), UroA and UAS03. UroA or UAS03 was resuspended in 0.25% sodium-CMC at desired concentrations. The mice were given orally Veh or UroA or UAS03 in 100 μl at desired concentrations (4 or 20 mg/kg/body weight). The treatment started after 12 hours of TNBS administration and every 12 hours thereafter up to 72 hours. The experiment was terminated post 60 h TNBS, where AhR^−/− mice were involved. In some experiments, we treated only once at post 12 h TNBS administration. TNBS administered and control mice were euthanized for tissue and plasma collection after 80 hours of TNBS/ethanol treatment. Mice were examined for colitis phenotype.

Another assay deals with HeLa cells. As to the kind of experiment: Autophagy induction (RFP-GFP-LC3). The assay is classed as cell-based. The conditions noted are these: 2 hours treatment. As to the method: Autophagy induction after compound treatment for 2 hours is assessed by the presence of red and green punctate inside the cells. The HeLa cells were transfected with RFP-GFP-LC3 plasmid 48 hours prior to drug treatments. After drug treatment for 2 hours the cells are fixed and imaged. LC3 is a protein that is expressed on autophagosomes and is seen as green puncta. When the autophagosome and lysosome fuse to form autolysosomes, the acidic pH inside of it causes degradation of GFP protein and only red puncta are visible (FIG. 26).

Assay [1] concerns C57BL/6 mice. Put plainly: In vivo Evans Blue permeability assay (LPS). Also on record: species or system mouse. The conditions noted are these: LPS 100 μg i.p.; for LPS-induced TNF-α levels in serum and BAL fluid: 20 mg/kg; for tissue accumulation of Evans Blue (lung and liver): 20 mg/kg after 1 h and 18 h. As to the method:
Acute intoxication of alcohol can induce microvasculature leakage as well as direct exposure to endothelium leads to disruption of endothelial integrity. […] In addition, increased endothelial permeability enhances the extravasation of immune cells into liver leading to increased inflammation. To examine the effect of UroA/UAS03 on endothelial cell permeability, we utilized in vivo Evans Blue permeability assay. Briefly, C57BL/6 mice (n=4/group) were given LPS (100 μg) i.p. followed by treatment with UAS03 or UroA (20 mg/kg) after 1 h and 18 h. Evans blue (i.v.) was given to mice (24 h post LPS treatment) and 30 min later mice were euthanized and the Evans Blue from lung and liver tissues was extracted using formamide. The levels of Evans Blue was determined by OD at 620 nm. […] To evaluate direct impact of UroA or UAS03 on endothelial barrier function, we used in vivo Miles assay to test blood vessel permeability. We used vascular endothelial growth factor (VEGF) as vasodilator. In this assay, C57BL/6 mice (n=3 per group) were given vehicle or UroA or UAS03 (20 mg/kg; oral gavage). After 3 h, Evans blue (100 μL of 1% solution) was administered i.v. followed by intra-dermal administration of VEGF (2.5 ng/mouse) or PBS (control). After 30 min, mice were euthanized and the levels of Evans Blue in skin tissue surrounding the injection site was extracted and estimated as described previously (FIG. 36C). […] To understand molecular mechanisms of UroA/UAS03 mediated endothelial barrier function, we tested the effects of these compounds in Human Umbilical Vein Endothelial Cells (HUVECs). Endotoxins or inflammatory mediators are responsible for decreasing the cell-cell and cell-matrix adhesion leading to increased barrier gaps and permeability. The VE-Cadherin (CDH5), an adherins junction (AJ) protein, can maintain the integrity of endothelial junctions through homotypic interactions with adjacent cell.

Another assay concerns 5FUR HCT116 cells. As to the kind of experiment: EMT markers in colon cancer cells (Western blot). The assay is classed as cell-based. The conditions noted are these: for EMT markers ZO-1, E-Cadherin, Snail, β-catenin: 5FUR HCT116, 72 h, in the presence of 5FU. As to the method: FIG. 41: Western blot analysis of EMT markers in 5FUR HCT116 cells in treated (72 h) with 5FU in the presence or absence of UroA/UAS03.
UroA/UAS03 treatment reduce epithelial-mesenchymal transitions (EMT) signature in 5FU resistant (5FU R) colon cancer cells: We examined EMT markers in 5FU sensitive (parent) and 5FU resistant (5FUR) HCT116 colon cancer cell lines. […] The reciprocal expression of these molecules are hallmarks of EMT signature. Next, we examined whether treatment with UroA/UAS03 can reverse these patterns in 5FUR cells. […] One of the mechanisms by which cancer cells acquire chemoresistant phenotype is by the induction of drug transporters such as Multidrug resistance-associated protein 2 (MRP2), ATP-binding cassette (ABC) drug efflux transporter proteins, BCRP and P-gycoprotein (P-gp).

Assay [2] concerns C57BL/6 mice. As to the kind of experiment: TNBS-induced colitis. The assay is classed as in vivo, mouse. The conditions noted are these: for colitis phenotype, therapeutic regimen: 20 mg/kg from 24 h post-TNBS; for TNBS-induced colon shortening and colonic inflammation, pre-treatment / barrier function, pre-treatment: oral 20 mg/kg daily one week before TNBS, none after.

Regarding `Oc1ccc2c(c1)COc1cc(O)ccc1-2` [UAS03, 6H-benzo[c]chromene-3,8-diol], in the assay on AhR^−/− mice, the “rapid body weight loss in AhR^−/− mice treated with TNBS” value is listed as “some protective role”, the “serum IL-6 in AhR^−/− mice” value was “did not appear to reduce IL-6”, the “serum TNF-α in AhR^−/− mice” value was “slightly reduced” and the “shortening of colon lengths in AhR^−/− mice” value is “did not appear to protect”. The autophagy induction result with HeLa cells is reported as “induce autophagy”. Moreover, in the assay with C57BL/6 mice [1], the “LPS-induced TNF-α levels in serum and BAL fluid” value was “reduced LPS-induced TNF-α levels”; the “tissue accumulation of Evans Blue (lung and liver)” value is “reduced tissue accumulation of Evans Blue”. Further, the “EMT markers ZO-1, E-Cadherin, Snail, β-catenin” value in the assay with 5FUR HCT116 cells is “upregulated ZO-1, E-Cadherin, and down regulated Snail and β-catenin”. In the assay with C57BL/6 mice [2], the “colitis phenotype, therapeutic regimen” value is reported as “reversed the colitis phenotype”; the “TNBS-induced colon shortening and colonic inflammation, pre-treatment” value is “protected”; the “barrier function, pre-treatment” value was “enhanced barrier function”.

For the molecule `O=c1oc2cc(O)ccc2c2ccc(O)cc12` [UroA, 3,8-dihydroxy-6H-dibenzo[b,d]pyran-6-one], in the assay on AhR^−/− mice, the “serum IL-6 in AhR^−/− mice” value was “did not appear to reduce IL-6”, the “serum TNF-α in AhR^−/− mice” value was “slightly reduced” and the “shortening of colon lengths in AhR^−/− mice” value is listed as “did not appear to protect”. In the assay with HeLa cells, the autophagy induction entry is recorded as “induce autophagy”. For the same molecule, in the assay with C57BL/6 mice [1], the “LPS-induced TNF-α levels in serum and BAL fluid” value is on record as “reduced LPS-induced TNF-α levels”; the “tissue accumulation of Evans Blue (lung and liver)” value is listed as “reduced tissue accumulation of Evans Blue”. Besides, the “EMT markers ZO-1, E-Cadherin, Snail, β-catenin” value in the assay on 5FUR HCT116 cells was “upregulated ZO-1, E-Cadherin, and down regulated Snail and β-catenin”. Moreover, the “expression of E-cadherin” value in the assay with 5FUR HCT116 cells (colon cancer cell lines) was “enhanced the expression of E-cadherin”. For the same molecule, in the assay with C57BL/6 mice [2], the “colitis phenotype, therapeutic regimen” value is given as “reversed the colitis phenotype”; the “TNBS-induced colon shortening and colonic inflammation, pre-treatment” value is recorded as “protected”; the “barrier function, pre-treatment” value is on record as “enhanced barrier function”.
